Experimental data as given in patent US10597383B2, “Bicyclic proline compounds” (Genentech, Inc., priority 2016, dated 2020).

biological target: human TRPA1 (Homo sapiens (Human), UniProt O75762); test: hTRPA1 CHO Ca2+ AUC EVO (IC50); FLIPR Tetra block of cinnamaldehyde induced calcium influx; type: cell-based; details: Table 1; CHO cells expressing TRPA1; 75 uM cinnamaldehyde (~EC80) as agonist
Procedure: IC50 ([…]) of compounds on the human and rat TRPA1 channels were determined using a FLIPR Tetra instrument. CHO cells expressing TRPA1 were plated into 384-well plates, incubated overnight at 37° C., and loaded with BD calcium indicator dye for 1 hr at 37° C. followed by 15 minutes. at room temperature. The assay buffer was Hank's Balanced Salt Solution (HBSS) containing 20 mM HEPES (pH readjusted to 7.4) along with 0.02% BSA.
Following dye load and plate cool down, compounds were added to the cells using FLIPR Tetra. Plates were then incubated with compounds for 20 minutes at room temperature prior to adding agonist. Following this incubation, ˜EC80 concentration of cinnamaldehyde (75 uM for human TRPA1 and 45 uM for rat TRPA1) was added to active the channels and block of cinnamaldehyde induced calcium influx was measured.
IC50 values were fit with a standard Hill function, keeping the Hill coefficient (n) fixed to 1.5. Fixing the Hill coefficient will generally reduce variability of the IC50 determination. The IC50 values were individually examined to make sure the MIN and MAX points were set correctly prior to validation of the results.

Sequence of human TRPA1 (O75762 whole entry): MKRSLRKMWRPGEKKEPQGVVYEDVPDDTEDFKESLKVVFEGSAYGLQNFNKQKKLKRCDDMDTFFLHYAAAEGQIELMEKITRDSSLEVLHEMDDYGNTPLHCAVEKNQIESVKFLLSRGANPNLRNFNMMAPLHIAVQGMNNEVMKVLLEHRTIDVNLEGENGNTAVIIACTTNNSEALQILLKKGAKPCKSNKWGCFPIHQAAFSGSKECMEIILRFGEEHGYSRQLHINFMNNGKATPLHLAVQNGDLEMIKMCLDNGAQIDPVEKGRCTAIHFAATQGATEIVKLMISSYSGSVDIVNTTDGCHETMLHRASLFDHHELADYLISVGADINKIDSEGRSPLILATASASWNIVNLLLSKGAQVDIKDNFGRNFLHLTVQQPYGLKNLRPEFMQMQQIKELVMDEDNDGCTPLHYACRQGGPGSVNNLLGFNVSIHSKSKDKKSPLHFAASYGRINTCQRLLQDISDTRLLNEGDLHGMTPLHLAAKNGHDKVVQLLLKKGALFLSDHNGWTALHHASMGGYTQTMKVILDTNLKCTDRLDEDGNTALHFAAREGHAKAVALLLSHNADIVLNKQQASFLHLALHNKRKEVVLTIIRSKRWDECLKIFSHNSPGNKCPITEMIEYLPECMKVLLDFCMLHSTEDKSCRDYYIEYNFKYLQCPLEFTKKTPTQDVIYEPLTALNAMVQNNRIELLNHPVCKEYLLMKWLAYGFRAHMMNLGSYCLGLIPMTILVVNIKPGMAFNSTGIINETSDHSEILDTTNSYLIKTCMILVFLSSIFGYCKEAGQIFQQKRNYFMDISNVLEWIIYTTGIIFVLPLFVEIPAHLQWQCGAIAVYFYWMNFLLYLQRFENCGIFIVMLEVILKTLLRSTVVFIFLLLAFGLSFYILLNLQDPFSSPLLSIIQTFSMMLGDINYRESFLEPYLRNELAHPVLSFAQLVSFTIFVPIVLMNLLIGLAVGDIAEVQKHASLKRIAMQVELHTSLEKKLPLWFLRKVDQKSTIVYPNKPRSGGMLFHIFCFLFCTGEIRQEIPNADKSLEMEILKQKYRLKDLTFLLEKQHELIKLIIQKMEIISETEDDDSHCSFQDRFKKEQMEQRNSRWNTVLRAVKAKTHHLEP

SMILES | IC50 [nM]
O=C(NCc1cc(-c2cnc(C(F)(F)F)nc2)c(F)cn1)[C@@H]1C2CC(C2)N1S(=O)(=O)c1cc2cc(F)ccc2o1 | 1.08
O=C(NCc1cc(-c2cnc(C(F)(F)F)nc2)ccc1F)[C@@H]1C2CC(C2)N1S(=O)(=O)c1ccc(F)cc1 [(2S)-3-(4-fluorophenyl)sulfonyl-N-[[2-fluoro-5-[2-(trifluoromethyl)pyrimidin-5-yl]phenyl]methyl]-3-azabicyclo[2.1.1]hexane-2-carboxamide] | 9.89
O=C(NCc1cc(F)cc(-c2cnc(C(F)(F)F)nc2)c1)[C@@H]1C2CC(C2)N1S(=O)(=O)c1ccc(F)cc1 [(2S)-3-(4-fluorophenyl)sulfonyl-N-[[3-fluoro-5-[2-(trifluoromethyl)pyrimidin-5-yl]phenyl]methyl]-3-azabicyclo[2.1.1]hexane-2-carboxamide] | 8.97
O=C(NCc1cc(-c2cnc(C(F)(F)F)nc2)ncc1OC(F)(F)F)[C@@H]1C2CC(C2)N1S(=O)(=O)c1ccc(F)cc1 [(2S)-3-(4-fluorophenyl)sulfonyl-N-[[5-(trifluoromethoxy)-2-[2-(trifluoromethyl)pyrimidin-5-yl]-4-pyridyl]methyl]-3-azabicyclo[2.1.1]hexane-2-carboxamide] | 2.77
O=C(NCc1cc(-c2cnc(C(F)(F)F)nc2)ncc1C(F)(F)F)[C@@H]1C2CC(C2)N1S(=O)(=O)c1ccc(F)cc1 [(2S)-3-(4-fluorophenyl)sulfonyl-N-[[5-(trifluoromethyl)-2-[2-(trifluoromethyl)pyrimidin-5-yl]-4-pyridyl]methyl]-3-azabicyclo[2.1.1]hexane-2-carboxamide] | 2.61
O=C(NCc1cc(-c2cnc(C(F)(F)F)nc2)ncc1C(F)(F)F)[C@@H]1C2CC(C2)N1S(=O)(=O)c1cc2cc(F)ccc2o1 [(2S)-3-(5-fluorobenzofuran-2-yl)sulfonyl-N-[[5-(trifluoromethyl)-2-[2-(trifluoromethyl)pyrimidin-5-yl]-4-pyridyl]methyl]-3-azabicyclo[2.1.1]hexane-2-carboxamide] | 1.85
O=C(NCc1cc(Cl)nc(-c2cnc(C(F)(F)F)nc2)c1)[C@@H]1C2CC(C2)N1S(=O)(=O)c1ccc(F)cc1 [(2S)-N-[[2-chloro-6-[2-(trifluoromethyl)pyrimidin-5-yl]-4-pyridyl]methyl]-3-(4-fluorophenyl)sulfonyl-3-azabicyclo[2.1.1]hexane-2-carboxamide] | 4.64
O=C(NCc1cc(-c2cnc(C(F)(F)F)nc2)nc(C2CC2)n1)[C@@H]1C2CC(C2)N1S(=O)(=O)c1ccc(F)cc1 [(2S)-N-[[2-cyclopropyl-6-[2-(trifluoromethyl)pyrimidin-5-yl]pyrimidin-4-yl]methyl]-3-(4-fluorophenyl)sulfonyl-3-azabicyclo[2.1.1]hexane-2-carboxamide] | 2.15
O=C(NCc1cc(-c2cnc(C(F)(F)F)nc2)ncc1C(F)F)[C@@H]1C2CC(C2)N1S(=O)(=O)c1ccc(F)c(F)c1 [(2S)-N-[[5-(difluoromethyl)-2-[2-(trifluoromethyl)pyrimidin-5-yl]-4-pyridyl]methyl]-3-(3,4-difluorophenyl)sulfonyl-3-azabicyclo[2.1.1]hexane-2-carboxamide] | 9.01
O=C(NCc1cc(-c2cnc(C(F)(F)F)nc2)ncc1C(F)F)[C@@H]1C2CC(C2)N1S(=O)(=O)c1ccc(F)cc1 [(2S)-N-[[5-(difluoromethyl)-2-[2-(trifluoromethyl)pyrimidin-5-yl]-4-pyridyl]methyl]-3-(4-fluorophenyl)sulfonyl-3-azabicyclo[2.1.1]hexane-2-carboxamide] | 9.92
O=C(NCc1cc(-c2cnc(C(F)(F)F)nc2)ncc1Br)[C@@H]1C2CC(C2)N1S(=O)(=O)c1ccc(F)cc1 [(2S)-N-[[5-bromo-2-[2-(trifluoromethyl)pyrimidin-5-yl]-4-pyridyl]methyl]-3-(4-fluorophenyl)sulfonyl-3-azabicyclo[2.1.1]hexane-2-carboxamide] | 3.82
O=C(NCc1cc(-c2cnc(C(F)(F)F)nc2)ncc1Cl)[C@@H]1C2CC(C2)N1S(=O)(=O)c1ccc(F)c(F)c1 [(2S)-N-[[5-chloro-2-[2-(trifluoromethyl)pyrimidin-5-yl]-4-pyridyl]methyl]-3-(3,4-difluorophenyl)sulfonyl-3-azabicyclo[2.1.1]hexane-2-carboxamide] | 1.55
O=C(NCc1cc(-c2cnc(C(F)(F)F)nc2)cc(C2CC2)n1)[C@@H]1C2CC(C2)N1S(=O)(=O)c1ccc(F)cc1 [(2S)-N-[[6-cyclopropyl-4-[2-(trifluoromethyl)pyrimidin-5-yl]-2-pyridyl]methyl]-3-(4-fluorophenyl)sulfonyl-3-azabicyclo[2.1.1]hexane-2-carboxamide] | 7.24

same assay, conditions: Table 3; CHO cells expressing TRPA1; 75 uM cinnamaldehyde (~EC80) as agonist

SMILES | IC50 [nM]
O=C(NCc1cc(-c2cnc(C(F)(F)F)nc2)ncn1)[C@@H]1C2CC(C2)N1S(=O)(=O)c1ccc(F)cc1 [compound 1, (2S)-3-(4-fluorophenyl)sulfonyl-N-[[6-[2-(trifluoromethyl)pyrimidin-5-yl]pyrimidin-4-yl]methyl]-3-azabicyclo[2.1.1]hexane-2-carboxamide] | 42.9
O=C(NCc1cc(-c2cnc(C(F)(F)F)nc2)ncc1F)[C@@H]1C2CC(C2)N1S(=O)(=O)c1ccc(F)cc1 [compound 2, (2S)-3-(4-fluorophenyl)sulfonyl-N-[[5-fluoro-2-[2-(trifluoromethyl)pyrimidin-5-yl]-4-pyridyl]methyl]-3-azabicyclo[2.1.1]hexane-2-carboxamide] | 11.3
O=C(NCc1cc(-c2ccc(C(F)(F)F)nc2)ncn1)[C@@H]1C2CC(C2)N1S(=O)(=O)c1ccc(F)cc1 [compound 3, (2S)-3-(4-fluorophenyl)sulfonyl-N-[[6-[6-(trifluoromethyl)-3-pyridyl]pyrimidin-4-yl]methyl]-3-azabicyclo[2.1.1]hexane-2-carboxamide] | 24.8

Second part, the molecule after the results:

IC50 [nM] | SMILES
36.4 | O=C(NCc1ccnc(-c2cnc(C(F)(F)F)nc2)c1)[C@@H]1C2CC(C2)N1S(=O)(=O)c1ccc(F)cc1 [compound 4, (2S)-3-(4-fluorophenyl)sulfonyl-N-[[2-[2-(trifluoromethyl)pyrimidin-5-yl]-4-pyridyl]methyl]-3-azabicyclo[2.1.1]hexane-2-carboxamide]
4.64 | O=C(NCc1cc(Cl)nc(-c2cnc(C(F)(F)F)nc2)c1)[C@@H]1C2CC(C2)N1S(=O)(=O)c1ccc(F)cc1 [compound 5, (2S)-N-[[2-chloro-6-[2-(trifluoromethyl)pyrimidin-5-yl]-4-pyridyl]methyl]-3-(4-fluorophenyl)sulfonyl-3-azabicyclo[2.1.1]hexane-2-carboxamide]
16.8 | O=C(NCc1cc(-c2cnc(C(F)(F)F)nc2)c(F)cn1)[C@@H]1C2CC(C2)N1S(=O)(=O)c1ccc(F)cc1 [compound 6, (2S)-3-(4-fluorophenyl)sulfonyl-N-[[5-fluoro-4-[2-(trifluoromethyl)pyrimidin-5-yl]-2-pyridyl]methyl]-3-azabicyclo[2.1.1]hexane-2-carboxamide]
20.8 | O=C(NCc1cc(-c2cnc(C(F)(F)F)nc2)c(Cl)cn1)[C@@H]1C2CC(C2)N1S(=O)(=O)c1ccc(F)cc1 [compound 7, (2S)-N-[[5-chloro-4-[2-(trifluoromethyl)pyrimidin-5-yl]-2-pyridyl]methyl]-3-(4-fluorophenyl)sulfonyl-3-azabicyclo[2.1.1]hexane-2-carboxamide]
16 | N#Cc1cnc(-c2cnc(C(F)(F)F)nc2)cc1CNC(=O)[C@@H]1C2CC(C2)N1S(=O)(=O)c1ccc(F)cc1 [compound 8, (2S)-N-[[5-cyano-2-[2-(trifluoromethyl)pyrimidin-5-yl]-4-pyridyl]methyl]-3-(4-fluorophenyl)sulfonyl-3-azabicyclo[2.1.1]hexane-2-carboxamide]
17.1 | N#Cc1ccc(-c2cnc(C(F)(F)F)nc2)cc1CNC(=O)[C@@H]1C2CC(C2)N1S(=O)(=O)c1ccc(F)cc1 [compound 9, (2S)-N-[[2-cyano-5-[2-(trifluoromethyl)pyrimidin-5-yl]phenyl]methyl]-3-(4-fluorophenyl)sulfonyl-3-azabicyclo[2.1.1]hexane-2-carboxamide]
2.15 | O=C(NCc1cc(-c2cnc(C(F)(F)F)nc2)nc(C2CC2)n1)[C@@H]1C2CC(C2)N1S(=O)(=O)c1ccc(F)cc1 [compound 10, (2S)-N-[[2-cyclopropyl-6-[2-(trifluoromethyl)pyrimidin-5-yl]pyrimidin-4-yl]methyl]-3-(4-fluorophenyl)sulfonyl-3-azabicyclo[2.1.1]hexane-2-carboxamide]
90.2 | CC12CC(C1)[C@@H](C(=O)NCc1cc(-c3cnc(C(F)(F)F)nc3)c(F)cn1)N2S(=O)(=O)c1ccc(F)cc1 [compound 12, (2S)-3-(4-fluorophenyl)sulfonyl-N-[[5-fluoro-4-[2-(trifluoromethyl)pyrimidin-5-yl]-2-pyridyl]methyl]-4-methyl-3-azabicyclo[2.1.1]hexane-2-carboxamide]
1.55 | O=C(NCc1cc(-c2cnc(C(F)(F)F)nc2)ncc1Cl)[C@@H]1C2CC(C2)N1S(=O)(=O)c1ccc(F)c(F)c1 [compound 13, (2S)-N-[[5-chloro-2-[2-(trifluoromethyl)pyrimidin-5-yl]-4-pyridyl]methyl]-3-(3,4-difluorophenyl)sulfonyl-3-azabicyclo[2.1.1]hexane-2-carboxamide]
3.82 | O=C(NCc1cc(-c2cnc(C(F)(F)F)nc2)ncc1Br)[C@@H]1C2CC(C2)N1S(=O)(=O)c1ccc(F)cc1 [compound 14, (2S)-N-[[5-bromo-2-[2-(trifluoromethyl)pyrimidin-5-yl]-4-pyridyl]methyl]-3-(4-fluorophenyl)sulfonyl-3-azabicyclo[2.1.1]hexane-2-carboxamide]
